# Data taken from paper PMC7549094 (Journal of Medicinal Chemistry, 2020).
# Like-named read-outs stand apart in the source and are kept apart here.
# Columns and labels:
# [1] = biological target: T1, hr GR ag (Homo sapiens, UniProt P04150); assay: receptor profile (Table S4); format: biochemical
# T1 sequence (P04150 1-777): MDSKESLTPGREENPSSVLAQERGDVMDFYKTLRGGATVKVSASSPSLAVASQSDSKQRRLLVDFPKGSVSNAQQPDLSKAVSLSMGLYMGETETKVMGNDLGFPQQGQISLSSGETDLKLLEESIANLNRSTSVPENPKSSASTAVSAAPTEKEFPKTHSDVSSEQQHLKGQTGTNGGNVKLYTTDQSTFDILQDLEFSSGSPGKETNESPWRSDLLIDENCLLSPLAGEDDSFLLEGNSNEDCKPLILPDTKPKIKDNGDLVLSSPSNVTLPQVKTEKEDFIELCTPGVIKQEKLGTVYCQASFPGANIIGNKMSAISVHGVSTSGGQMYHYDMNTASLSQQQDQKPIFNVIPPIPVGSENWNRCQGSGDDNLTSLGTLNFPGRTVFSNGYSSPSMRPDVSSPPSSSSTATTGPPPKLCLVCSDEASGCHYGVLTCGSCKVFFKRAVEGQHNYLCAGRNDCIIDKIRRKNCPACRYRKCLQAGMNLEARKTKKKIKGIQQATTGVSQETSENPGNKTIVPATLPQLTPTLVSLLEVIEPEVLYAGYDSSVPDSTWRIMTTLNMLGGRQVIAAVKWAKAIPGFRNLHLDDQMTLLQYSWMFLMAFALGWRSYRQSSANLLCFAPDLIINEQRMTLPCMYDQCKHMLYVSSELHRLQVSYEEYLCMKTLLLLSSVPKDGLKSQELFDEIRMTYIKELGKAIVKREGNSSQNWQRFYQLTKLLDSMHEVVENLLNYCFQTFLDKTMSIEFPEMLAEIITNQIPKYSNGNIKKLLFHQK
# [2] = biological target: hr KDR (Homo sapiens, UniProt P35968); assay: receptor profile (Table S4); format: biochemical
# Sequence of hr KDR (P35968 20-1356): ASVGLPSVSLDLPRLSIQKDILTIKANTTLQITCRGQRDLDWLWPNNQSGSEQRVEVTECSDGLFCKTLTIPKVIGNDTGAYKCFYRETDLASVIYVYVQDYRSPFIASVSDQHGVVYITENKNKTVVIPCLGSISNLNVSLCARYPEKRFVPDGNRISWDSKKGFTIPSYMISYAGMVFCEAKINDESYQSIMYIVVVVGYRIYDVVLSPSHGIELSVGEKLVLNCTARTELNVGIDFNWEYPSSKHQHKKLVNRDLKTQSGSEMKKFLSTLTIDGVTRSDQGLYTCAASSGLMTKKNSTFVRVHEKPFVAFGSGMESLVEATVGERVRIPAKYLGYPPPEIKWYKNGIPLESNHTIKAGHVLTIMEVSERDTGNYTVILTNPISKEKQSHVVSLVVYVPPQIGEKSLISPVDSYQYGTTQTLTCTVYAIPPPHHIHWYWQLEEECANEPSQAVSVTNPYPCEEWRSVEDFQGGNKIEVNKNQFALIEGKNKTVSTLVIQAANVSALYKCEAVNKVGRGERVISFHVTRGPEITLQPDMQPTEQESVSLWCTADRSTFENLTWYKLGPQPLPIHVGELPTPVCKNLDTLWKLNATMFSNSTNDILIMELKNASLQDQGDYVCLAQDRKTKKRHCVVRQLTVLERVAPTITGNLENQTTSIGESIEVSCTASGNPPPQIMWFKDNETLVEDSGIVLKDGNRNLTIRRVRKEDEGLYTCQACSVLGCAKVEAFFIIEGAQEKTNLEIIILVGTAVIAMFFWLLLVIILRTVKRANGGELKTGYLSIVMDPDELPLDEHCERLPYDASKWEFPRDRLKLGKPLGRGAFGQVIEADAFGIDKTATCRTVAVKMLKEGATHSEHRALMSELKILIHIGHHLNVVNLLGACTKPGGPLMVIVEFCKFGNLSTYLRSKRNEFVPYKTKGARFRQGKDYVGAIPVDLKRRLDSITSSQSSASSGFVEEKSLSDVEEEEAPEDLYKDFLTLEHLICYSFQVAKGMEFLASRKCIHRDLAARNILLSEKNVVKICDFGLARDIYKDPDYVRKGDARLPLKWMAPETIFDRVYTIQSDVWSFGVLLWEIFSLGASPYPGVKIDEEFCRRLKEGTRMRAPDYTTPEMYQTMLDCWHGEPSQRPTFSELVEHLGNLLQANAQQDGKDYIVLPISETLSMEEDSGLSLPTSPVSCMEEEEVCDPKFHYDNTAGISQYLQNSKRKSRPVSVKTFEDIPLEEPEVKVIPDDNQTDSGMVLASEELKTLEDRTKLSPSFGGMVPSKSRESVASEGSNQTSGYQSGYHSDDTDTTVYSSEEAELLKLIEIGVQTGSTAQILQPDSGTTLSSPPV
# [3] = biological target: T2, hr 5-HT1A ag (Homo sapiens, UniProt P08908); assay: receptor profile (Table S4); format: biochemical
# T2 sequence (P08908 1-422): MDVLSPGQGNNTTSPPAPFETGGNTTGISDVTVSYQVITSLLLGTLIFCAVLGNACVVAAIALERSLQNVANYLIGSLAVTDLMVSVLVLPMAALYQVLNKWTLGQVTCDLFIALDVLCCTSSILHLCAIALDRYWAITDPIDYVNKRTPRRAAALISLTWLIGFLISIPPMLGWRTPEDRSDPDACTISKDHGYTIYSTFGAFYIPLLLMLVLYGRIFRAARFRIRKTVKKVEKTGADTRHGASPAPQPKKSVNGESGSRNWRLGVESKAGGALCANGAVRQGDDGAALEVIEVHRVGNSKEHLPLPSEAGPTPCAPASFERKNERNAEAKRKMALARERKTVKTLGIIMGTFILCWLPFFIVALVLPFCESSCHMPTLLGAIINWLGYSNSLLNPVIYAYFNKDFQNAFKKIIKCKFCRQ
# [4] = male Sprague–Dawley rat, 10 mg/kg PO; dose-normalized
# [5] = biological target: T3, hr 5-HT2C (Homo sapiens, UniProt P28335); assay: receptor profile (Table S4); format: binding
# T3 sequence (P28335 33-458): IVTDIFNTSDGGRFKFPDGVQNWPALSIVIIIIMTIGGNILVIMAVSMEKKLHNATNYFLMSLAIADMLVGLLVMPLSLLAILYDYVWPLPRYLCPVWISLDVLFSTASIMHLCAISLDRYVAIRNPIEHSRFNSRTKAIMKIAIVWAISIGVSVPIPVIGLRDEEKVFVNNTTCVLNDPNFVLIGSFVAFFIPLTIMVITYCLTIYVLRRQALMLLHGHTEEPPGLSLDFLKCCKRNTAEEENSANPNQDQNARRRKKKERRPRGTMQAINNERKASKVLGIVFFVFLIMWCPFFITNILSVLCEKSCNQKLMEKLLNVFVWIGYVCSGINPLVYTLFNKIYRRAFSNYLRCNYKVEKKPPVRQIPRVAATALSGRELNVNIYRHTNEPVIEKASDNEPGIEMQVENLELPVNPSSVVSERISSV
# [6] = tested on: hr GABAA antag
# [7] = biological target: human CYP2D6 (Homo sapiens, UniProt P10635); settings: human recombinant CYP; 1 µM, 30 min
# Sequence of human CYP2D6 (P10635 whole entry): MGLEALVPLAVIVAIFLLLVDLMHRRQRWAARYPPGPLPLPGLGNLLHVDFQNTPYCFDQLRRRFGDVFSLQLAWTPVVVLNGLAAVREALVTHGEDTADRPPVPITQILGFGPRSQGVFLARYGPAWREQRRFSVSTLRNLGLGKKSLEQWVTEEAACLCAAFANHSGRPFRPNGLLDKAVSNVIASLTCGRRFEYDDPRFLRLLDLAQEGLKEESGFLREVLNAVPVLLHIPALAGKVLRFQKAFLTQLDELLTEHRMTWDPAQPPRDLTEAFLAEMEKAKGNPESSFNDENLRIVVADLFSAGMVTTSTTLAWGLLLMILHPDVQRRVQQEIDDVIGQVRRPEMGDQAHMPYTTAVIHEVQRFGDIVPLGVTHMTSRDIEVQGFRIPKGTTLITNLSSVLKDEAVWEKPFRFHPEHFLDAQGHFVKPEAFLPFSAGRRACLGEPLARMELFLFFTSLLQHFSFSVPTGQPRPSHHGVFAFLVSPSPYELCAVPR
# [8] = biological target: T4, hr Al1A antag (Homo sapiens, UniProt P35348); assay: receptor profile (Table S4); format: biochemical
# T4 sequence (P35348 1-466): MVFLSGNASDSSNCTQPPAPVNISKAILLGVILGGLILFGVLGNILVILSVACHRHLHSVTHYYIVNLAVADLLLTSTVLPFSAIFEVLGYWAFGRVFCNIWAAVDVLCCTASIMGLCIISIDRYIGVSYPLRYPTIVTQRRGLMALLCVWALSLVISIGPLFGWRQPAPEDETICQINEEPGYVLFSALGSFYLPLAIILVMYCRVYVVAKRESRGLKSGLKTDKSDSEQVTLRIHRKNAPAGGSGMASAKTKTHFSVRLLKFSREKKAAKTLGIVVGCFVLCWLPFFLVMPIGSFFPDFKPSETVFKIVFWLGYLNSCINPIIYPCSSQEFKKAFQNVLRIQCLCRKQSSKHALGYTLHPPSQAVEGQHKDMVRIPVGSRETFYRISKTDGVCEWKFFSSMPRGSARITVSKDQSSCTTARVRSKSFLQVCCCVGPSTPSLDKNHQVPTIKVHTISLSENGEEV
# [9] = tested on: T. brucei bloodstream form overexpressing PSMB5 Y113F; assay: growth inhibition of T. brucei overexpressing PSMB5 Y113F; format: cell-based
# Description: Generation of T. brucei strains ectopically expressing proteasome β4 and β5 subunit variants
# All the T. brucei proteasome mutants were generated by following protocols described earlier (Khare et
# assembly technology (NEBuilder high fidelity DNA assembly cloning kit). The sense (5′-
# Y113F gene was generated from the wild-type PSMB5 construct by site-directed mutagenesis using
# mutagenic sense (5′- [sequence]tcgta[sequence]-3′), antisense (5′-
# [sequence]-3′) primers and QuikChange II Site-Directed Mutagenesis Kit
# (Stratagene). The sequences of the wild-type and mutant PSMB5 genes were verified by sequencing and
# both gene versions were cloned into the T. brucei expression vector pHD1034 under control of a
# ribosomal RNA promoter. Transfected T. brucei Lister 427 cells were selected in medium supplemented
# with puromycin at 1 μg/ml. Susceptibility of transfected T. brucei cell lines to compounds was assessed
# after 2 days of compound treatment. Parasite viability was determined with CellTiter-Glo. All assays were
# carried out in three biological replicates. Reported EC50 values for T. brucei parasites ectopically
# expressing PSMB5 proteins were calculated from three technical replicates.
# inhibition of T. brucei bloodstream form constitutively overexpressing wild -type PSMB5 or PSMBY113F
# [10] = male beagle dog, 1.0 mg/kg PO, dose-normalized
structure (smiles),measurement,setting,value
"Cc1nc(C)c(C(=O)Nc2ccc(F)c(-c3nc4ncc(-c5ncccc5C)cn4n3)c2)o1 [compound 1, N-(4-Fluoro-3-(6-(3-methylpyridin-2-yl)-[1,2,4]triazolo[1,5-a]pyrimidin-2-yl)phenyl)-2,4-dimethyloxazole-5-carboxamide]",EC50/IC50,[1]; hr GR ag,> 30 µM
same,inhibition at 10 µM,[1]; read-out: % inh/act @ 10 µM,-5%
same,inhibition at 30 µM,[1]; read-out: % inh/act @ 30 µM,-4%
same,EC50/IC50,[2]; hr KDR,> 30 µM
same,inhibition at 10 µM,[2]; read-out: % inh/act @ 10 µM,21%
same,inhibition at 30 µM,[2]; read-out: % inh/act @ 30 µM,22%
same,EC50/IC50,[3]; hr 5-HT1A ag,> 30 µM
same,inhibition at 10 µM,[3]; read-out: % inh/act @ 10 µM,1%
same,inhibition at 30 µM,[3]; read-out: % inh/act @ 30 µM,1%
same,DN AUC PO,[4],12 µM·h
same,DN Cmax PO,[4],1000 nM
same,EC50/IC50,[5]; hr 5-HT2C,> 30 µM
same,inhibition at 10 µM,[5]; read-out: % inh/act @ 10 µM,9%
same,inhibition at 30 µM,[5]; read-out: % inh/act @ 30 µM,8%
same,% inh/act @ 10 µM,[6],-5%
same,% inh/act @ 30 µM,[6],-4%
same,substrate of human CYP2D6,[7],not a substrate
same,EC50/IC50,[8]; hr Al1A antag,> 30 µM
same,inhibition at 10 µM,[8]; read-out: % inh/act @ 10 µM,-4%
same,inhibition at 30 µM,[8]; read-out: % inh/act @ 30 µM,8%
same,effect of β5 Y113F mutation of T. brucei proteasome on activity,"[9]; T. brucei, β5 Y113F",loss of activity
same,EC50,"[9]; Trypanosoma brucei, 48 h, read-out: EC50, T. brucei growth",3.3 µM
same,CL as % of hepatic blood flow,"dog, IV, fumarate salt",37 % of hepatic blood flow
same,DN AUC PO,[10],1.5 µM·h
same,DN Cmax PO,[10],300 nM
